Results on one compound are retold here after patent US12390435B2, “Electrophiles and electrophile pro-drugs as RAD51 inhibitors” (University of Pittsburgh—Of the Commonwealth System of …, priority 2018, dated 2025).

One data set relates to RelA in MCF-10A cells. In words: RelA protein level. The class given is cell-based. The settings on record: 5 μM, 24 hr. How it is done:
Western blotting was performed. 20-60 μg of total lysates per lane were loaded on 7%, 10%, or 12% SDS-PAGE and transferred onto nitrocellulose or polyvinylidene difluoride membranes (Bio-Rad). The membranes were probed with primary antibodies against caspase-3, multi-drug resistance protein-1 (MRP1), poly [ADP ribose] polymerase-1 (PARP-1), ubiquitin, RelA; cyclin D1, p21, caspase-9, MRP4, IKKβ, pIKKβ, IκBα, or pIκBα (Cell Signaling); caspase-8 (R&D Systems). Samples were normalized to β-actin (Sigma-Aldrich) or GAPDH (Trevigen).

Data set [1] relates to MDA-MB-231 xenograft tumor. The experiment in a line: MDA-MB-231 xenograft tumor growth, 7.5 mg/kg/day oral gavage. The class given is in vivo, mice. Here is the method:
MDA-MB-231 cells were injected into the fourth inguinal mammary fat pad of 6-week-old female athymic nude mice.

The next data set has as its system MCF7 cells. In words: Cell growth assay (FluoReporter dsDNA). The class given is cell-based. The settings on record: Homo sapiens, 48 hr, 0-15 μM. Here is the method:
(§1) Cells were plated at a cell density of 5000 cells per well in 96-well plates. […] Cells were counted using the FluoReporter dsDNA quantitation kit (Molecular Probes) according to the manufacturer's instructions. Fluorescence was measured using a SpectraMax M2 plate reader (Molecular Devices). […] Three individual experiments were done (n=5/each), and statistical comparison between two cell lines across doses was determined by two-way analysis of variance followed by Tukey post-test.

Data set [2] deals with MDA-MB-231 cells. In words: Cell growth assay (FluoReporter dsDNA). Particulars: Homo sapiens, MDA-MB-231; 48 hr, 0-15 μM. The class given is cell-based. How it is done: as §1
In a further data set the test system is MCF-10A cells. In words: Cell growth assay (FluoReporter dsDNA). Particulars: for IC50: Homo sapiens, MCF-10A. The class given is cell-based. How it is done: as §1
In another data set the test system is MDA-MB-468 cells. The experiment in a line: Cell growth assay (FluoReporter dsDNA). The class given is cell-based. Particulars: Homo sapiens, 48 hr, 0-15 μM. Here is the method:
as §1

The subject of data set [3] is NHEJ (EJ5-GFP, U2OS cells). The experiment in a line: EJ5-GFP NHEJ reporter assay in U2OS cells. The class given is cell-based. The settings on record: 5 μM, 48 h flow cytometry or 68 h live-cell microscopy. Here is the method:
Measurements of NHEJ, HR, Alt-EJ and SSA assays were performed as previously described. HR activity was measured by counting GFP-positive cells by flow cytometry at the MWRI flow cytometry core using a BD LSRII (BD Biosciences). RAD51 overexpressing cells were generated by stable transfection of pLVX RAD51 IRES Neo and selection with geneticin (Invitrogen).
U2OS cells were prepared as above, but 5 h following compound treatment, cells were transferred into the Incucyte Zoom (Essen) live-cell imaging automated fluorescence microscope at 37° C. with 5% CO2. Cell confluence and green object count per mm2 were determined using Incucyte Zoom software. […]
NO2-OA-dependent effects on HR DNA repair were further investigated by utilizing a DRGFP reporter assay. This analysis quantifies intracellular recombination of an integrated cDNA cassette of two tandem non-fluorescent GFP constructs following introduction of an I-SceI cleavage to the system by measuring the fluorescent GFP protein that is produced following successful recombination. […] A novel strategy was used to measure the kinetics of changes in HR in live cells by using automated fluorescence microscopy to track the emergence of GFP positive cells over time in monolayers, as opposed to making static measurements of detached cells using flow cytometry. […]

Data set [4] concerns MDA-MB-231 cells. In words: Cell cycle analysis with propidium iodide. Particulars: 5 μM NO2-OA versus DMSO. The class given is cell-based. Here is the method:
Samples were analyzed at the Flow Cytometry Core at MWRI utilizing a BD LSRII (BD).

In another data set the target is T1, RAD51 and ABL core (Homo sapiens, UniProt Q06609).
T1 construct: His; made in house; host or cells: E. coli BL21(DE3)pLysS
T1 sequence (Q06609 whole entry): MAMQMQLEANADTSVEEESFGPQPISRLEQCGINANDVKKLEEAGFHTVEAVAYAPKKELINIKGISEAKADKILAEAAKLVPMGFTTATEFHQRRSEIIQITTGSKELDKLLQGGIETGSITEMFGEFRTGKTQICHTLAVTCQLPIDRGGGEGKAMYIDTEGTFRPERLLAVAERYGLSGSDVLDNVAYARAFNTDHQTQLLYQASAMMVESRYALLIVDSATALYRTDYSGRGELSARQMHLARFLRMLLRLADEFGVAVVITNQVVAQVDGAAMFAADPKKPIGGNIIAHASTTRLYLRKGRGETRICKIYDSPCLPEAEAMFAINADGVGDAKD
The experiment in a line: In vitro RAD51-ABL binding assay. The settings on record: purified proteins, 0, 100 or 500 nM, 1 h. The class given is biochemical. How it is done:
FIGS. 3A-3I. […] FIG. 3A. […] FIG. 3B. […] FIG. 3C. […] Three independent experiments were quantified and analyzed by one-way ANOVA * p<0.05. FIG. 3D. […] FIG. 3E. […] FIG. 3F. […] Purified RAD51 and ABL core proteins were incubated with OA-NO2 at 0, 100 or 500 nM for 1 h and ABL was precipitated. The amount of bound RAD51 was detected by immunoblot. FIG. 3G. […] RAD51 interactions with ABL and phosphorylated RAD51 Y315 were probed by IP and immunoblot. FIG. 3H. […] Cells were incubated with biotinylated NO2-OA and then lysates were precipitated with streptavidin coated agarose and detected by immunoblot. FIG. 3I.
Recombinant His-tagged RAD51 in the pET21a vector were transformed into E. coli BL21(DE3)pLysS cells (EMD Millipore) and purified.

Like-named read-outs stand apart in the source and are kept apart here.

For `CCCCCCCCC(=CCCCCCCCC(=O)O)[N+](=O)[O-]` [NO2-OA, 10-nitro-octadec-9-enoic acid], the RelA protein levels entry in the data set with RelA in MCF-10A cells is on record as “not altered”. For the same compound, in data set [1] (7.5 mg/kg/day oral gavage, 27 days post-treatment, versus vehicle and NO2-SA), the xenograft tumor growth result is “significantly reduced tumor growth”. Also, in [1] (7.5 mg/kg/day, 4 weeks), the “body weight during treatment” value was “no weight loss”. Also, the overt toxicity entry in [1] (7.5 mg/kg/day, 4 weeks) is “no overt toxic effects”. Moreover, the “tumor NO2-OA levels” value in data set [1] (oral administration) was “increased murine tumor NO2-OA levels”. For the same compound, the IC50 (commonly the concentration needed to halve the response being measured) in the data set with MCF7 cells turned out to be 11.6 ± 3.59 µM; in the data set with MDA-MB-231 cells [2], 2.7 ± 0.11 µM; in the data set on MCF-10A cells (read-out: IC50 cell growth, only NO2-OA treatment, probenecid study, no probenecid, 0-25 μM 48 hr), 14.2 ± 1.05 µM; in the data set with MCF-10A cells (48 hr, 0-15 μM, read-out: IC50 cell growth), 7.7 ± 1.93 µM; in the data set with MDA-MB-468 cells, 1.6 ± 0.11 µM. In the data set with MCF-10A cells (probenecid pretreated versus only NO2-OA), the “decrease of IC50 by probenecid” value was 2 fold. For the same compound, the “effect on NHEJ (GFP positive cells)” value in [3] is on record as “no effect”. For the same compound, the cell cycle changes result in the data set on MDA-MB-231 cells [4] is listed as “no significant changes to the cell cycle occurred”. Also, the “RAD51-ABL core complex formation” value at RAD51 and ABL core is “abolished”.
